Source: patent US5952308A, “Mineral absorption promoting agent” (Pola Chemical Industries Inc., priority 1991, dated 1999)

Columns and labels:
[1] = test system: hemoglobin; test: Mineral absorption promoting effect test on animals (hemoglobin increase, iron utilization); type: in vivo, Wistar male rats
Description: Wistar male rats (body weight:80 g) were feeded for 3 weeks, giving iron-free feed, ferrous sulfate-added feed (iron: 12 ppm), or ferrous sulfate and oligogalacturonic acid-added feed (iron: 12 ppm, powder oligogalacturonic acid obtained in the preparation method 1=0.5%).
During the period, hemoglobin concentration in blood was measured every 7 days, and utilization ratios of iron in each of these feeds were compared, using hemoglobin increase (hemoglobin concentration in blood×blood volume) as an index.
Net increase of hemoglobin (number of tested rats = 10); unit: […]

[2] = test system: Wistar rat; test: Acute toxicity test of oligogalacturonic acid; settings: in vivo, po
Description: Acute toxicity test of oligogalacturonic acid
Animal: Wistar rat: One group comprising
10 each of male and female rats
Specimen: 50% oligogalacturonic acid aqueous
Oral forced administration
Dosage: Group 1 10 ml/kg

| Substance | Net increase of hemoglobin, 7th day ([1]; 7th day, feed with iron 12 ppm, n = 10 rats, ± SD) [g] | Net increase of hemoglobin, 14th day ([1]; 14th day, feed with iron 12 ppm, n = 10 rats, ± SD) [g] | Net increase of hemoglobin, 21st day ([1]; 21st day, feed with iron 12 ppm, n = 10 rats, ± SD) [g] | Net increase of hemoglobin, at start ([1]; at start, feed with iron 12 ppm, n = 10 rats, ± SD) [g] | Utilization ratio ([1]; iron in feed, 3 weeks, index hemoglobin increase (hemoglobin concentration in blood×blood volume)) [%] | autopsy after 14 days [2] |
| --- | --- | --- | --- | --- | --- | --- |
| ferrous sulfate | 0.2 ± 0.1 | 0.3 ± 0.1 | 0.4 ± 0.2 | 0 | 33 |  |
| oligogalacturonic acid |  |  |  |  |  | no abnormal sign |
